Legend:
[1] = target: T1, IRAK4 (Homo sapiens, UniProt Q9NWZ3); assay: IRAK4 Z'-LYTE assay; type: biochemical; conditions: for IC50: n = 1
T1 construct: purchased Signalchem I12-10G-20
T1 sequence (Q9NWZ3 1-460): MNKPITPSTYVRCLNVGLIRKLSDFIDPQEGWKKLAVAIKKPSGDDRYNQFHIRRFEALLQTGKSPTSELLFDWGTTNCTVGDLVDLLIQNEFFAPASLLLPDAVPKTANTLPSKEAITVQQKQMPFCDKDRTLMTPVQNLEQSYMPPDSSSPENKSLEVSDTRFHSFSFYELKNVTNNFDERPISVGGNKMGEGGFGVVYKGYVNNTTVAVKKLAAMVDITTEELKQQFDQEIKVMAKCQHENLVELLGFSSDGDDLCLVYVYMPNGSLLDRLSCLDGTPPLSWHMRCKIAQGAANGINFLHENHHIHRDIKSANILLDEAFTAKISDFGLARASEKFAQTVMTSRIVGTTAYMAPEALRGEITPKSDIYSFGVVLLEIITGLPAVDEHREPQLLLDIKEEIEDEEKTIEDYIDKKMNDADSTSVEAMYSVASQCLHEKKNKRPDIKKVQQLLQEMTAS
Description: • Bar-coded Corning, low volume NBS, black 384-well plate (Corning Cat. #4514) • Test Compounds: The Test Compounds are screened in 1% DMSO (final) in the well. For 10 point titrations, 3-fold serial dilutions are conducted from 10 µM. • Peptide/Kinase Mixture: The 2×IRAK4/Ser/Thr 07 mixture is prepared in 50 mM HEPES pH 7.5, 0.01% BRIJ-35, 10 mM MnCl2, 1 mM EGTA, 2 mM DTT, 0.02% NaN3. • ATP Solution: All ATP Solutions are diluted to a 4× working concentration in Kinase Buffer (50 mM HEPES pH 7.5, 0.01% BRIJ-35, 10 mM MgCl2, 1 mM EGTA). ATP Km apparent is previously determined using a Z-LYTE® assay. • Development Reagent Solution: The Development Reagent is diluted 1:45000 in Development Buffer. General Method • 1. 100 nL—100× Test Compound in 100% DMSO • 2. […]—Kinase buffer • 3. 5 μL—2× Peptide/Kinase Mixture • 4. 2.5 μL—4×ATP Solution
The final 10 μL Kinase Reaction consists of 3.45-63.6 ng IRAK4 and 2 μM Ser/Thr 07 in 50 mM HEPES pH 7.5, 0.01% BRIJ-35, 5 mM MgCl2, 5 mM MnCl2, 1 mM EGTA, 1 mM DTT, 0.01% NaN3. • 5. 30-second plate shake • 6. 60-minute Kinase Reaction incubation at room temperature • 7. 5 μL—Development Reagent Solution • 8. 30-second plate shake • 9. 60-minute Development Reaction incubation at room temperature • 10. Read on fluorescence plate reader and analyze the data

[2] = Plasma protein binding, equilibrium dialysis (RED), human; type: in vitro ADME; conditions: for recovery at 5 μM / fraction unbound at 5 μM: Human plasma, drug 5 μM; for fraction unbound at 5 μM: read-out: % bound (converted); for Free Fraction in Whole Blood Assay, Human: plasma free fraction
Description: (§1) Brain and plasma drug binding were performed by equilibrium dialysis using the Rapid Equilibrium Dialysis (RED) device. Briefly, 300 μL of plasma or brain homogenate (1 brain/3 buffer) containing drug (5 μM) was equilibrated (4-18 h) against 500 μL of buffered saline. After incubation, the concentration of drug in plasma/brain homogenate and buffer was determined by LC-MS/MS.
(§2) Recovery is calculated by determining the total amount of drug in 50 μL of plasma and 50 μL buffer after the incubation and comparing that value to the amount of drug in 50 μL of a plasma sample that was not incubated. For the protein binding assay, drug was added to the plasma and this plasma was added to one side of the dialysis device while buffer was added to the other. After filing the plasma chamber of the equilibrium device, a 50 μL aliquot of plasma was mixed with 50 μL of buffer and then quenched with stop reagent. Drug recovery=(Drug buffer+Drug plasma)/(drug in initial plasma)

[3] = Plasma protein binding, equilibrium dialysis (RED), dog; type: in vitro ADME; conditions: drug 5 μM; for fraction unbound at 5 μM: read-out: % bound (converted)
Description: as §1, §2

[4] = test system: TLR dependent cytokine release in human blood; assay: Human whole blood assays, average of IL-6 Gard and TNFα LPS; type: cell-based; conditions: read-out: Human Whole Blood Assays (IC5050), Average
Description: To assess the effect of whole blood on the potency of compound I-1 and Comparison-1, the compounds were evaluated for their inhibitory potential on TLR dependent cytokine release in human blood. Freshly drawn peripheral blood from healthy volunteers was incubated with test compound and stimulated overnight with LPS or Gardiquimod. The serum was isolated after centrifugation and TNF-α and IL-6 were measured by ELISA.

[5] = Plasma protein binding, equilibrium dialysis (RED), monkey; type: in vitro ADME; conditions: drug 5 μM; for fraction unbound at 5 μM: read-out: % bound (converted); for recovery at 5 μM: value above 100% due to experimental error (footnote)
Description: as §1, §2

[6] = test system: TLR7-Induced TNF-α in Human Peripheral Blood Mononuclear Cells (PBMC); assay: TLR7-induced TNF-α in human PBMC (resiquimod); type: cell-based; conditions: resiquimod 0.1 μg/ml, read-out: Cell Assays IC50, TNFα (PBMC, resiquimod)
Description: Human peripheral blood mononuclear cells (PBMC) were seeded at 100,000 cells per well in 100 μL of RPMI with 10% FCS and primed overnight with 8 ng/ml of IFN-β at 37° C., 5% CO2. Compound was serially diluted in DMSO from 2 mM in 3-fold dilutions, and then diluted 1:100 in RPMI 1640 complete media with 10% FBS (2× stock). The PBMCs were pre-incubated with test compound for 1 hour at 37° C., 5% CO2 by adding 100 μL of RPMI media containing 2× concentrated test compound per well (0.5% final DMSO concentration).
The PBMCs were stimulated with resiquimod (10 μL per well of 21× concentrated resiquimod solution in RPMI media to give a final concentration of 0.1 μg/ml) at 37° C., 5% CO2 for an additional 18 hours. 100 μL of supernatant per well was harvested to measure TNF-α. TNF-α was quantitated using DuoSet ELISA Kit per manufacturer's protocol.

| SMILES | IC50 [1] [nM] | recovery at 5 μM [2] [%] | fraction unbound at 5 μM [2] | Free Fraction in Whole Blood Assay, Human [2] [%] | recovery at 5 μM [3] [%] | fraction unbound at 5 μM [3] | IC50 [4] [nM] | fraction unbound at 5 μM [5] | recovery at 5 μM [5] [%] | IC50 [6] [nM] | EC50 [1] [nM] | times more free than Comparison-1 (free drug) ([2]; in rat, dog, monkey and human proteins) |
| --- | --- | --- | --- | --- | --- | --- | --- | --- | --- | --- | --- | --- |
| CCO[C@H]1CC[C@H](n2cc(NC(=O)c3csc(-c4cn[nH]c4)n3)c(-c3nc(F)ccc3F)n2)CC1 [Comparison-1, reference compound] | 15 | 75.5 | 0.004 | 0.4 | 77.2 | 0.01 | 1400 | 0.003 | 71.6 | 15 | – | – |
| CCO[C@H]1CC[C@H](n2cc(NC(=O)c3csc(-c4cn[nH]c4)n3)c(-c3ncccn3)n2)CC1 [Compound I-1, N-(1-((1r,4r)-4-ethoxycyclohexyl)-3-(pyrimidin-2-yl)-1H-pyrazol-4-yl)-2-(1H-pyrazol-4-yl)thiazole-4-carboxamide] | 6 | 77.1 | 0.03 | 3.0 | 70.7 | 0.066 | 174 | 0.017 | 104 | 3 | 6 | approximately 6 times |
